GI50 and TGI data for 8 compounds are collected here from PubChem BioAssay (NCI).

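Results reflect a 48-hour exposure of cells in 96-well plates to compound at five concentrations. GI50: concentration for 50% inhibition of growth. TGI: concentration producing complete growth inhibition.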 Some results are limits rather than exact numbers.

Test systems include NCI-H226 lung; SR leukemia; CCRF-CEM leukemia; UO-31 renal; DU-145 prostate; HL-60(TB) leukemia; T-47D breast; KM12 colon; M14 melanoma; SF-295 CNS.
What all share (assay): NCI anticancer screen, dose series, 48 h

On to `CCc1ccc(Oc2c(-c3ccc(OCCc4cccc(C(F)(F)F)c4)cc3O)n[nH]c2C(F)(F)F)cc1`, for which the GI50 in the test on NCI-H226 lung is 6.9 µM; in the test on SR leukemia it was 3.06 µM; in the test with CCRF-CEM leukemia it was 2.55 µM; in the test on UO-31 renal it was 2.07 µM; with DU-145 prostate, 2.62 µM; in the test with HL-60(TB) leukemia, 5.2 µM. Further, the GI50 in the test on T-47D breast is 1.43 µM; in the test on KM12 colon it was 4.2 µM; in the test with M14 melanoma, 5.23 µM; in the test with SF-295 CNS, 8.12 µM. For the same compound, the TGI was 14.3 µM with NCI-H226 lung; 12 µM with SR leukemia; 9.18 µM in the test on CCRF-CEM leukemia; 8.08 µM in the test on UO-31 renal; 8.35 µM in the test with DU-145 prostate; 12.9 µM in the test with HL-60(TB) leukemia. Besides, the TGI in the test with T-47D breast was 4.95 µM; in the test on KM12 colon, 10.8 µM; in the test with M14 melanoma it was 11.9 µM; in the test with SF-295 CNS it was 15.4 µM.
Consider `CCOC(=O)c1c(-c2ccccc2)n2c(=O)cc(C)c3c(O)c(O)cc1c32`, for which the GI50 was 11.4 µM with NCI-H226 lung; 3.59 µM in the test on SR leukemia; 1.59 µM in the test with CCRF-CEM leukemia; 8.39 µM in the test with UO-31 renal; 10.5 µM in the test on DU-145 prostate; 3.34 µM in the test on HL-60(TB) leukemia. In addition, the GI50 is 5.43 µM in the test on T-47D breast, 6.74 µM with KM12 colon, 5.84 µM in the test with M14 melanoma and 6.75 µM in the test on SF-295 CNS. The TGI was found to be 42.1 µM in the test with NCI-H226 lung; 17.5 µM with SR leukemia; 13.9 µM in the test on CCRF-CEM leukemia; 38.7 µM in the test on UO-31 renal; 23.9 µM in the test on DU-145 prostate; 10.8 µM with HL-60(TB) leukemia. Besides, the TGI in the test on T-47D breast is over 100 µM; with KM12 colon, 38.7 µM; with M14 melanoma, 20.2 µM; in the test on SF-295 CNS it was over 100 µM.
In the case of `CCCCCCCCCN=C(N)c1ccc(N2CCN(c3ccc(C(N)=NCCCCCCCCC)cc3)CC2)cc1`, the GI50 was 3.77 µM with NCI-H226 lung; 2.75 µM in the test on SR leukemia; 1.77 µM in the test with CCRF-CEM leukemia; 3.5 µM in the test on UO-31 renal; 2.35 µM in the test with DU-145 prostate; 2.44 µM in the test on T-47D breast. Further, the GI50 in the test on KM12 colon is 1.7 µM; with M14 melanoma it was 3.09 µM; with SF-295 CNS, 1.24 µM. Moreover, the TGI in the test on NCI-H226 lung is over 50 µM; with SR leukemia, over 50 µM; with CCRF-CEM leukemia, 8.34 µM; in the test with UO-31 renal, over 50 µM; with DU-145 prostate, 8.06 µM; in the test on T-47D breast it was 11.8 µM. Further, the TGI in the test with KM12 colon was 5.67 µM; with M14 melanoma, over 50 µM; with SF-295 CNS it was 2.57 µM.
In the case of `CCN1CCN(Cc2ccc(NC(=O)Nc3nc(-c4cc(OC)c(OC)c(OC)c4)cs3)cc2C(F)(F)F)CC1`, the GI50 with NCI-H226 lung is 1.68 µM; in the test on SR leukemia, 1.2 µM; in the test with CCRF-CEM leukemia, 1.87 µM; in the test on UO-31 renal, 1.36 µM; with DU-145 prostate, 2.07 µM; in the test on HL-60(TB) leukemia, 1.94 µM. Besides, the GI50 in the test with KM12 colon is 1.65 µM; in the test with M14 melanoma, 1.58 µM; in the test on SF-295 CNS it was 1.55 µM. Besides, the TGI in the test with NCI-H226 lung came to 3.82 µM; in the test with SR leukemia, 3.08 µM; with CCRF-CEM leukemia, 6.07 µM; in the test with UO-31 renal it was 3.78 µM; in the test with DU-145 prostate, 4.92 µM; in the test with HL-60(TB) leukemia, 4.25 µM. Moreover, the TGI was found to be 3.35 µM in the test on KM12 colon, 3.16 µM in the test with M14 melanoma and 3.13 µM in the test with SF-295 CNS.
Turning to `Cc1ccc2ncnc(N(C)C3CCCCC3)c2c1`, the GI50 with NCI-H226 lung was 18.7 µM; in the test on SR leukemia it was 17.4 µM; in the test with CCRF-CEM leukemia it was 34.7 µM; with UO-31 renal, 24.5 µM; in the test with DU-145 prostate it was 33.9 µM; in the test on T-47D breast it was 76.9 µM. The GI50 in the test on KM12 colon is 35.6 µM; with M14 melanoma it was 24.3 µM; with SF-295 CNS it was 18.9 µM. In addition, the TGI in the test with NCI-H226 lung was 58.4 µM; in the test with SR leukemia, 44.9 µM; in the test on CCRF-CEM leukemia it was over 100 µM; in the test on UO-31 renal, over 100 µM; with DU-145 prostate, over 100 µM; with T-47D breast it was over 100 µM. Besides, the TGI was over 100 µM with KM12 colon, 63.4 µM in the test on M14 melanoma and 46.9 µM with SF-295 CNS.
In the case of `O=C(CCN1CCCCC1)c1csc2ccccc12`, the TGI with NCI-H226 lung, in the test on SR leukemia, in the test on UO-31 renal, with DU-145 prostate, with T-47D breast and with KM12 colon was over 100 µM each time. The TGI in the test on M14 melanoma and with SF-295 CNS was over 100 µM each time.
In the case of `CCN1C(=O)/C(=c2\sc3n(c2=O)C2C(NN=3)N(CC)C(=O)N2CC)c2ccccc21` (stereo not drawn), the GI50 is 0.736 µM in the test on NCI-H226 lung; 0.357 µM in the test with SR leukemia; 0.433 µM in the test with CCRF-CEM leukemia; 0.846 µM in the test with UO-31 renal; 0.582 µM with DU-145 prostate; 0.303 µM with HL-60(TB) leukemia. Further, the figures for the GI50 in the test on KM12 colon, in the test with M14 melanoma and in the test on SF-295 CNS were 0.469 µM, 0.347 µM and 0.377 µM, respectively. In addition, the TGI with NCI-H226 lung was 22.8 µM; in the test with SR leukemia, over 100 µM; in the test on CCRF-CEM leukemia, over 100 µM; in the test on UO-31 renal it was over 100 µM; in the test with DU-145 prostate, 29.2 µM; in the test with HL-60(TB) leukemia, 1.01 µM. The TGI is over 73.4 µM with KM12 colon, 21.7 µM in the test with M14 melanoma and 6.64 µM in the test with SF-295 CNS.
In the case of `N#CC1=C(N)N=C(N2CCOCC2)C(C#N)C12Nc1ccccc1S2` (stereo not drawn), the GI50 in the test with NCI-H226 lung was 27.8 µM; in the test on SR leukemia it was 9.31 µM; in the test with UO-31 renal it was 16.4 µM; in the test with DU-145 prostate, 19.2 µM; with HL-60(TB) leukemia it was 51 µM; in the test with T-47D breast, 27.3 µM. Further, the values for the GI50 with KM12 colon, with M14 melanoma and in the test on SF-295 CNS were 15 µM, 35 µM and 26.3 µM, respectively. Besides, the TGI in the test with NCI-H226 lung is over 100 µM; with SR leukemia, over 100 µM; in the test on UO-31 renal, 61.4 µM; with DU-145 prostate it was 56.5 µM; in the test on HL-60(TB) leukemia, over 100 µM; with T-47D breast it was 88.2 µM. Moreover, the TGI in the test on KM12 colon was determined as 33.6 µM; with M14 melanoma it was 65.4 µM; in the test with SF-295 CNS it was 79.1 µM.
